Laboratory results from publication PMC10226046, “Prodrug Strategies for the Development of β-L-5-((E)-2-Bromovinyl)-1-((2S,4S)-2-(hydroxymethyl)-1,3-(dioxolane-4-yl))uracil (L-BHDU) against Varicella Zoster Virus (VZV)” (Journal of Medicinal Chemistry, 2023).

Tests used:
VZV-ORF57-ΔTS = test: microbe, parasite or virus in culture; type: cell-based, Varicella zoster virus; conditions: Human alphaherpesvirus 3, ARPE-19
[1] = In vitro stability in mouse liver homogenates (LC-MS/MS); type: in vitro ADME, BALB/c mice; conditions: 37 °C; converted to L-BHDU and L-BHDU-MP
Procedure: The antiviral efficacy of POM-L-BHDU-MP prompted us to perform pharmacokinetic studies on POM-L-BHDU-MP in vitro and in vivo. […] In liver homogenates, POM-L-BHDU-MP converted to L-BHDU and L-BHDU-MP (Figure 4). POM-L-BHDU-MP incubated with homogenized mouse liver was unstable and converted to L-BHDU and L-BHDU-MP. The concentration of L-BHDU increased steadily, reaching 1.9 μg/mL after 60 min. L-BHDU-MP appeared rapidly and reached maximal concentration (4.6 μg/mL) after 4 min, which is 32-fold higher than the corresponding L-BHDU concentration. Thus, POM-L-BHDU-MP likely converts rapidly into L-BHDU-MP and more slowly into L-BHDU in the liver.
Untreated BALB/c mice were euthanized, and their livers were immediately removed. […] The concentration of POM-L-BHDU-MP, L-BHDU, and L-BHDU-MP were determined using LC-MS/MS.
The primary stock solutions for the calibration were prepared at 0.5 mg/mL for L-BHDU, 1 mg/mL for POM-L-BHDU-MP, and 1 mg/mL for L-BHDU-MP. […] The samples were analyzed in a negative ESI mode. […] The collision gas was argon with a collision cell pressure of 3.18 × 10^–3 mbar, and the collision energy was 30 V. A multiple reaction monitoring (MRM) function was used to quantify the analytes using the following ion transitions: 266.1 → 223.2 for AZT (ISTD), 318.7 → 80.7 for L-BHDU, 398.7 → 180.9 for L-BHDU-MP, and 626.6 → 325 for POM-L-BHDU-MP.

CC(C)(C)C(=O)OCOP(=O)(OCOC(=O)C(C)(C)C)OC[C@H]1OC[C@@H](n2cc(/C=C/Br)c(=O)[nH]c2=O)O1 [POM-L-BHDU-MP (41), Bis(POM) Prodrug of L-BHDU-MP]
EC50 (VZV-ORF57-ΔTS): 1.2 nM | stability in homogenized mouse liver [1]: unstable
